{"source": "patent US20250090612A1", "about": "“FEED ADDITIVE COMPOSITIONS AND METHODS OF USE” (PMI Nutrition, LLC, priority 2021, published 2025)", "origin": "cited, not measured here", "tested_on": "C. elegans", "details": "C. elegans assay", "data": [{"substance": "urolithins", "values": [{"measurement": "concentration needed to obtain a positive effect on muscle function", "value": 50, "unit": "µM"}, {"measurement": "concentration required to trigger the muscle function response", "value": 11.4, "unit": "µg/mL"}]}]}
